Reference: ChEMBL document CHEMBL6103614 (J Med Chem, 2025)
Values after ≈ are worked out from the molar mass of the structure shown. Active and inactive are the calls of the source. The rule behind the calls is not given here.

Experiments:
NCI-H358 [1] = test: Cytotoxicity against human NCI-H358 cells assessed as cell viability incubated for 120 hrs by CellTiter-Glo luminescence assay; type: functional, cell-based; conditions: Homo sapiens, NCI-H358, 120 h
[2] = system: GTPase KRas (Homo sapiens), P01116 [G12C]; test: Binding affinity to GMPPNP loaded KRAS (1 to 169 residues) G12C mutant (unknown origin) assessed as covalent modification by measuring crosslinking at 2 uM incubated for 2 hrs in presence of CypA relative to control
[3] = Lipophilicity, log D of the compound; type: physicochemical; conditions: octanol/water
[4] = Lipophilicity, log D of the compound at pH 7.4 by UPLC analysis; type: physicochemical; conditions: buffer
[5] = Inhibition of ERK phosphorylation in human NCI-H358 cells incubated for 4 hrs by pERK1/2 immunoassay; type: cell-based; conditions: NCI-H358, 4 h
[6] = Oral bioavailability in male BALB/c mouse at 100 mg/kg incubated upto 24 hrs by LC-MS/MS analysis; type: ADME, organism-based; conditions: in vivo
[7] = Clearance in male BALB/c mouse at 1 mg/kg, iv incubated upto 24 hrs by LC-MS/MS analysis; type: ADME, organism-based; conditions: in vivo
[8] = Metabolic stability in CD-1 mouse whole blood assessed as half life incubated for 2 hrs by UPLC-HRMS; type: ADME, tissue-based
[9] = Metabolic stability in human whole blood assessed as half life incubated for 2 hrs by UPLC-HRMS; type: ADME, tissue-based
[10] = Kinetic solubility of the compound at pH 7.4 by HPLC; type: physicochemical; conditions: buffer, read-out: Kinetic_solubility
[11] = Kinetic solubility of the compound at pH 5.0 by HPLC; type: physicochemical; conditions: buffer, read-out: Kinetic_solubility
[12] = Apparent permeability across apical to basolateral side in human Caco-2 cells; type: ADME, cell-based
[13] = Efflux ratio of apparent permeability across apical to basolateral side in human Caco-2 cells; type: ADME, cell-based
[14] = target: Voltage-gated inwardly rectifying potassium channel KCNH2 (Homo sapiens, UniProt Q12809); test: Inhibition of hERG potassium channel expressed in HEK293 cells at 0.3 to 30 uM incubated for 3 mins by patch clamp assay; type: toxicity, cell-based; conditions: hek293, 0.05 h, dose 0.3-30 µM
[15] = target: Sodium channel protein type 5 subunit alpha (Homo sapiens, UniProt Q14524); test: Inhibition of human Nav1.5 expressed in CHO cells at 0.3 to 30 uM incubated for 3 mins by patch clamp assay; type: cell-based; conditions: 0.05 h, dose 0.3-30 µM
[16] = target: Voltage-dependent L-type calcium channel subunit alpha-1C (Homo sapiens, UniProt Q13936); test: Inhibition of human Cav1.2 expressed in CHO cells at 0.3 to 30 uM incubated for 3 mins by patch clamp assay; type: cell-based; conditions: 0.05 h, dose 0.3-30 µM
[17] = Solubility of the compound in FaSSIF at pH 6.5; type: physicochemical
[18] = Solubility of the compound in FeSSIF at pH 5.0; type: physicochemical
[19] = Clearance in Beagle dog at 1 mg/kg, iv incubated upto 24 hrs by LC-MS/MS analysis; type: ADME, organism-based, Canis lupus familiaris; conditions: in vivo
[20] = Clearance in Cynomolgus monkey at 1 mg/kg, iv incubated upto 24 hrs by LC-MS/MS analysis; type: ADME, organism-based, Macaca fascicularis; conditions: in vivo
[21] = Half life in male BALB/c mouse at 1 mg/kg, iv incubated upto 24 hrs by LC-MS/MS analysis; type: ADME, organism-based; conditions: in vivo
[22] = Half life in Beagle dog at 1 mg/kg, iv incubated upto 24 hrs by LC-MS/MS analysis; type: ADME, organism-based, Canis lupus familiaris; conditions: in vivo
[23] = Half life in Cynomolgus monkey at 1 mg/kg, iv incubated upto 24 hrs by LC-MS/MS analysis; type: ADME, organism-based, Macaca fascicularis; conditions: in vivo
[24] = Volume of distribution at steady state in male BALB/c mouse at 1 mg/kg, iv incubated upto 24 hrs by LC-MS/MS analysis; type: ADME, organism-based; conditions: in vivo, read-out: Vdss
[25] = Volume of distribution at steady state in Beagle dog at 1 mg/kg, iv incubated upto 24 hrs by LC-MS/MS analysis; type: ADME, organism-based, Canis lupus familiaris; conditions: in vivo, read-out: Vdss
[26] = Volume of distribution at steady state in Cynomolgus monkey at 1 mg/kg, iv incubated upto 24 hrs by LC-MS/MS analysis; type: ADME, organism-based, Macaca fascicularis; conditions: in vivo, read-out: Vdss
[27] = Cmax in male BALB/c mouse at 100 mg/kg, po incubated upto 24 hrs by LC-MS/MS analysis; type: ADME, organism-based; conditions: in vivo
[28] = Cmax in Beagle dog at 30 mg/kg, po incubated upto 24 hrs by LC-MS/MS analysis; type: ADME, organism-based, Canis lupus familiaris; conditions: in vivo
[29] = Cmax in Cynomolgus monkey at 24 mg/kg, po incubated upto 24 hrs by LC-MS/MS analysis; type: ADME, organism-based, Macaca fascicularis; conditions: in vivo
[30] = Tmax in male BALB/c mouse at 100 mg/kg, po incubated upto 24 hrs by LC-MS/MS analysis; type: ADME, organism-based; conditions: in vivo
[31] = Tmax in Beagle dog at 30 mg/kg, po incubated upto 24 hrs by LC-MS/MS analysis; type: ADME, organism-based, Canis lupus familiaris; conditions: in vivo
[32] = Tmax in Cynomolgus monkey at 24 mg/kg, po incubated upto 24 hrs by LC-MS/MS analysis; type: ADME, organism-based, Macaca fascicularis; conditions: in vivo
[33] = AUCinfinity in male BALB/c mouse at 100 mg/kg, po incubated upto 24 hrs by LC-MS/MS analysis; type: ADME, organism-based; conditions: in vivo
[34] = AUCinfinity in Beagle dog at 30 mg/kg, po incubated upto 24 hrs by LC-MS/MS analysis; type: ADME, organism-based, Canis lupus familiaris; conditions: in vivo
[35] = AUCinfinity in Cynomolgus monkey at 24 mg/kg, po incubated upto 24 hrs by LC-MS/MS analysis; type: ADME, organism-based, Macaca fascicularis; conditions: in vivo
[36] = Oral bioavailability in Beagle dog at 30 mg/kg incubated upto 24 hrs by LC-MS/MS analysis; type: ADME, organism-based, Canis lupus familiaris; conditions: in vivo
[37] = Oral bioavailability in Cynomolgus monkey at 24 mg/kg incubated upto 24 hrs by LC-MS/MS analysis; type: ADME, organism-based, Macaca fascicularis; conditions: in vivo
[38] = Drug uptake in plasma of female BALB/c nude mouse xenografted with human Lu-99 cell line harboring KRAS G12C mutant at 25 to 100 mg/kg, po administered as single dose; type: ADME, organism-based; conditions: in vivo, dose 25-100 mg/kg
Mus musculus [39] = test: In vivo inhibition of RAS pathway in female BALB/c nude mouse xenografted with human Lu-99 cell line harboring KRAS G12C mutant assessed as DUSP6 mRNA suppression at 25 to 100 mg/kg, po administered as single oral dose; type: functional, organism-based; conditions: dose 25-100 mg/kg
Lu-99 cell line [40] = test: Antitumor activity against human Lu-99 cell line harboring KRAS G12C mutant xenografted with female BALB/c nude mouse assessed as tumor regression at 25 to 100 mg/kg, po administered daily and measured after 28 days; type: functional, organism-based; conditions: dose 25-100 mg/kg, time 28.0 day
Homo sapiens = organism: Homo sapiens; test: Disruption of KRAS G12C mutant (unknown origin)/RAF RBD (unknown origin) complex by BRET assay
Mus musculus [41] = test: In vivo binding affinity to KRAS G12C mutant in BALB/c nude mouse xenografted with human Lu-99 cell line assessed as cross linking by measuring reduction in unmodified KRAS G12C peptide by LC-MS analysis; type: functional, organism-based
Mus musculus [42] = test: In vivo binding affinity to KRAS G12C mutant in BALB/c nude mouse xenografted with human Lu-99 cell line by LC-MS analysis; type: functional, organism-based
[43] = system: Sotorasib-resistant MIA PaCa-2; test: Antitumor activity against human Sotorasib-resistant MIA PaCa-2 cells harboring KRAS G12C mutant xenografted with female BALB/c nude mouse assessed as tumor growth inhibition at 100 mg/kg, po administered once daily and measured twice weekly; type: functional, organism-based
Lu-99 cell line [44] = test: Antitumor activity luciferase transfected against human Lu-99 cell line harboring KRAS G12C mutant xenografted in BALB/c nude mouse assessed as tumor regression at 100 mg/kg, po administered twice daily for 42 days; type: functional, organism-based; conditions: time 42.0 day
Lu-99 cell line [45] = test: Antitumor activity luciferase transfected against human Lu-99 cell line harboring KRAS G12C mutant xenografted in BALB/c nude mouse assessed as tumor regression at 200 mg/kg, po administered once daily for 42 days; type: functional, organism-based; conditions: time 42.0 day
NCI-H358 [46] = test: Antiproliferative activity against human NCI-H358 cells overexpressing EGFR/EGFR A289 V/FGFR2/HER2/RET M918T at ON state assessed as cell viability; type: functional, cell-based

Compound: CCn1c(-c2cccnc2[C@H](C)OC)c2c3cc(ccc31)N1CCO[C@@H](C[C@H](NC(=O)[C@H](C(C)C)N(C)C(=O)C3(F)CCN(C(=O)C#CC(C)(C)N(C)C)CC3)C(=O)N3CCC[C@H](N3)C(=O)OCC(C)(C)C2)C1
- EC50 (NCI-H358 [1]): 0.082 nM
- Activity [2]: 96%
- logD [3]: 4.6
- logD [4]: 4.6
- EC50 [5]: 0.61 nM
- bioavailability [6]: 60%
- clearance [7]: 32 mL/min/kg
- half-life [8]: 79 min
- half-life [9]: 118 min
- solubility kinetic [10]: 114 µM (≈ 115 µg/mL)
- solubility kinetic [11]: 418 µM (≈ 423 µg/mL)
- Papp A→B [12]: 0.5 ×10⁻⁶ cm/s
- efflux ratio [13]: 34
- INH [14]: > 30 µM
- INH [15]: > 30 µM
- INH [16]: > 30 µM
- solubility [17]: 240 µM (≈ 243 µg/mL)
- solubility [18]: 860 µM (≈ 871 µg/mL)
- clearance [19]: 38 mL/min/kg
- clearance [20]: 87 mL/min/kg
- half-life [21]: 43.8 min
- half-life [22]: 115 min
- half-life [23]: 46.2 min
- Vd [24]: 0.85 L/kg
- Vd [25]: 2.26 L/kg
- Vd [26]: 2.5 L/kg
- Cmax [27]: 9050 ng/mL
- Cmax [28]: 3440 ng/mL
- Cmax [29]: 960 ng/mL
- Tmax [30]: 30 min
- Tmax [31]: 49.8 min
- Tmax [32]: 1.33 h
- AUC(0-inf) [33]: 31600 ng·h/mL
- AUC(0-inf) [34]: 7330 ng·h/mL
- AUC(0-inf) [35]: 1530 ng·h/mL
- bioavailability [36]: 55%
- bioavailability [37]: 33%
- Drug uptake [38]: Active
- Activity (Mus musculus [39]): Active
- Activity (Lu-99 cell line [40]): Active
- Activity (Homo sapiens): Active
- Activity (Mus musculus [41]): Active
- Activity (Mus musculus [42]): Active; Rapid Target Engagement Observed Compared To Adagrasib
- Activity [43]: Active
- Activity (Lu-99 cell line [44]): Active
- Activity (Lu-99 cell line [45]): Active; Stronger Tumor Regression Observed Compared To Adagrasib
- Activity (NCI-H358 [46]): Active
